Data reported in US8293782B2, “Compound, probe containing the novel compound, and fluorescence-imaging contrast agent containing the novel compound or the probe” (Canon Kabushiki Kaisha, priority 2009, dated 2012).

Assay: Fading evaluation in fetal bovine serum under interior light (680 LUX)
Type: physicochemical
Settings: 5 μM in FBS, absorbance at maximum absorption wavelength after 24 hours
Description: The ordinate of FIG. 10 indicates log(At/A0) where A0 and At respectively represent absorbance at the maximum absorption wavelength after the lapse of 0 and t hours from the irradiation of the interior light. The fading rate in Table 1 is expressed by (A0-A24)/A0, that is, variation in absorbance at the maximum absorption wavelength after the lapse of 24 hours.

Alexa Fluor (trademark) 750 [Reagent 1]
Fading rate (A0-A24)/A0: 4.5%
